Data taken from patent US4328242A, “α-(3,4,5-Trimethoxyhenzoyl)thiopropionyl-glycine” (Ausoria Farmaceutici S.r.l., priority 1980, dated 1982).

Assays:
[1] = Acute toxicity in mice; type: in vivo; details: mouse, in vivo; for mortality at 240 h: read-out: % Death; for LD50 at 240 h: 10 days observation, probits, read-out: DL50 mg/kg (Confidential Limits)
[2] = system: Mice; experiment: Acute toxicity in mice; type: in vivo; details: 20 tested
[3] = Acute toxicity in rats; type: in vivo; details: rat, in vivo; for mortality at 240 h: read-out: % Death; for LD50 at 240 h: 10 days observation, probits, read-out: DL50 mg/kg (Confidential Limits)
Description: (§1) The acute toxicity has been studied with Swiss albino rats and Wistar albino rats and in both instances, animals of both sexes have been used. The product is administered orally and endoperitoneally and the period of observation is ten days after the initial treatment. The values of DL50 by the statistical method with confidential limits up to 95% are calculated by means of the method of probits reported in Table I. Probits is a statistical unit of probable deviation used in biological assays; equal to the normal equivalent deviate increased by 5, used to make all normal equivalent deviation values positive.

[4] = system: Rats; experiment: Acute toxicity in rats; type: in vivo; details: 20 tested
Description: as §1

[5] = system: rabbits; experiment: Subchronic toxicity, rectal route; type: in vivo; details: eight consecutive weeks
[6] = system: rats; experiment: Chronic toxicity in rats; type: in vivo; details: 24 weeks, 125 and 250 mg/kg oral, 200 mg/kg by inhalation
Description: (§2) The chronic toxicity of TBPG has been investigated in rats and dogs treated for a period of 24 weeks with 125 mg/kg and 250 mg/kg by the oral route and 200 mg/kg by inhalation.

[7] = system: dogs; experiment: Chronic toxicity in dogs; type: in vivo; details: 24 weeks, 125 and 250 mg/kg oral, 200 mg/kg by inhalation
Description: as §2

[8] = system: albino Sprague-Dawley rats; experiment: Toxicity in the fetus, rats; type: in vivo; details: daily oral and subcutaneous, 250 and 500 mg/kg, four weeks prior to coupling and twenty days of gestation
Description: Toxicity in the fetus of TBPG has been studied in albino Sprague-Dawley rats and in New Zealand rabbits. In the case of rats both male and female, the treatment has been initiated four weeks prior to coupling and then has been continued only in the females during the twenty days of gestation.
In the case of female rabbits, the treatment has been carried out during the twenty eight days of gestation.

[9] = system: anaesthesized cats; experiment: Pharmacodynamics in anaesthesized cats; type: in vivo; details: up to 50 mg/kg intravenously
[10] = system: guinea pigs; experiment: Protective activity in subacute bronchitis induced by inhalation of citric acid; type: in vivo; details: 7.5% citric acid inhalation, oral, rectal or inhalation, 50 and 200 mg/kg, two weeks
[11] = system: rats; experiment: Protective action on chronic bronchitis induced by inhalation of SO2; type: in vivo; details: SO2 aerosol, 100 and 400 mg/kg oral, rectal and inhalation, two weeks
Description: Bronchopulmonary lesions were induced in the animals by aerosolization of SO2. The animals were then treated for two weeks with TBPG in the dosage of 100 and 400 mg/kg by the oral route, rectal route and by inhalation.

[12] = system: rabbits; experiment: Secretory activity in rabbits (bronchial secretion); type: in vivo
Description: This activity has been determined using the method described by E. M. Boyd and C. F. Boyd, modified by P. C. Braga, et al described in Bronchial Hypersecretion, 1973. This activity has been determined every hour for a period of four hours by measuring the amount of bronchial secretion derived from the laryngo-tracheal organs and from the tracheo-bronchial organs of rabbits.

[13] = system: rats; experiment: Bronchosecretolithic activity in rats (sodium fluorescine method); type: in vivo; details: 300 mg/kg intraperitoneally
Description: The secretolithic activity of TBPG has been determined in comparison to α-mercaptopropionylglycine by administering 300 mg/kg of the substance intraperitonally and comparing with 135 mg/kg of α-mercaptopropionylglycine administered also intraperitoneally. The doses are equimolar. The method is based on the use of sodium fluorescine described by H. M. Mawatari (Experimental Studies on the Expectorant Action of Several Drugs, Kogoshima Daigakeu Igakeu Zasshi 27, 561, 1976).

[14] = system: guinea pigs; experiment: Antibronchospastic activity, histamine aerosol; type: in vivo; details: oral, rectal or inhalation, 200 and 400 mg/kg
Description: Histamine administered in the form of an aerosol has caused in guinea pigs symptoms of broncho-spasm accompanied by convulsions, irreversible collapse and death.

[15] = system: rats; experiment: Regenerative action in partial hepatectomy; type: in vivo; details: partial hepatectomy (70% excision), 200 and 400 mg/kg oral, six days
[16] = Stability to light; type: physicochemical; details: powder form, light of a 60 watt lamp, three months
[17] = Solubility; type: physicochemical
Description: The structure of the compound is confirmed by analytical and spectroscopic analysis, specifically IR and NMR spectra. The compound is in the form of a white micro-cyrstalline powder, odorless and almost tasteless. It is soluble in a saturated solution of sodium bicarbonate and in other basic solutions. The substance is insoluble in water, soluble in warm ethanol.

[18] = Clinical tolerance with respect to gastric reactions; details: in vivo
[19] = with respect to the control animals

## COc1cc(C(=O)SC(C)C(=O)NCC(=O)O)cc(OC)c1OC (stereo not drawn) [TBPG, α-(3,4,5-trimethoxybenzoyl)thiopropionylglycine]
[1]; ip, 1500 mg/kg
  mortality at 240 h: 0%
[1]; ip, 2000 mg/kg
  mortality at 240 h: 40%
[1]; ip, 2500 mg/kg
  mortality at 240 h: 50%
[1]; ip, 3000 mg/kg
  mortality at 240 h: 65%
[1]; ip, 3500 mg/kg
  mortality at 240 h: 90%
[1]; ip, 95% limits (2192-2963)
  LD50 at 240 h: 2530 mg/kg
[1]; po, orally, 3000 mg/kg
  mortality at 240 h: 5%
[1]; po, orally, 4000 mg/kg
  mortality at 240 h: 30%
[1]; po, orally, 5000 mg/kg
  mortality at 240 h: 50%
[1]; po, orally, 6000 mg/kg
  mortality at 240 h: 75%
[1]; po, orally, 7000 mg/kg
  mortality at 240 h: 90%
[1]; po, orally, 95% limits (4539-5254)
  LD50 at 240 h: 4860 mg/kg
[2]; i.p., 1500 mg/kg
  No. of Animals Dead: 0
[2]; i.p., 2000 mg/kg
  No. of Animals Dead: 8
[2]; i.p., 2500 mg/kg
  No. of Animals Dead: 10
[2]; i.p., 3000 mg/kg
  No. of Animals Dead: 13
[2]; i.p., 3500 mg/kg
  No. of Animals Dead: 18
[2]; orally, 3000 mg/kg
  No. of Animals Dead: 1
[2]; orally, 4000 mg/kg
  No. of Animals Dead: 6
[2]; orally, 5000 mg/kg
  No. of Animals Dead: 10
[2]; orally, 6000 mg/kg
  No. of Animals Dead: 15
[2]; orally, 7000 mg/kg
  No. of Animals Dead: 18
[3]; ip, 1500 mg/kg
  mortality at 240 h: 0%
[3]; ip, 2000 mg/kg
  mortality at 240 h: 30%
[3]; ip, 2500 mg/kg
  mortality at 240 h: 45%
[3]; ip, 3000 mg/kg
  mortality at 240 h: 70%
[3]; ip, 3500 mg/kg
  mortality at 240 h: 85%
[3]; ip, 95% limits (2483-2887)
  LD50 at 240 h: 2670 mg/kg
[3]; po, orally, 3000 mg/kg
  mortality at 240 h: 5%
[3]; po, orally, 4000 mg/kg
  mortality at 240 h: 30%
[3]; po, orally, 5000 mg/kg
  mortality at 240 h: 45%
[3]; po, orally, 6000 mg/kg
  mortality at 240 h: 60%
[3]; po, orally, 7000 mg/kg
  mortality at 240 h: 85%
[3]; po, orally, 95% limits (4879-5873)
  LD50 at 240 h: 5230 mg/kg
[4]; i.p., 1500 mg/kg
  No. of Animals Dead: 0
[4]; i.p., 2000 mg/kg
  No. of Animals Dead: 6
[4]; i.p., 2500 mg/kg
  No. of Animals Dead: 9
[4]; i.p., 3000 mg/kg
  No. of Animals Dead: 14
[4]; i.p., 3500 mg/kg
  No. of Animals Dead: 17
[4]; orally, 3000 mg/kg
  No. of Animals Dead: 1
[4]; orally, 4000 mg/kg
  No. of Animals Dead: 6
[4]; orally, 5000 mg/kg
  No. of Animals Dead: 9
[4]; orally, 6000 mg/kg
  No. of Animals Dead: 12
[4]; orally, 7000 mg/kg
  No. of Animals Dead: 17
[5]; 400 mg/kg per day
  hematochemical data, hepatic and renal functions, autopsies and macro/microscopic controls of the main organs: have not shown any variations from the normal
[5]; two suppositories per day equal to 400 mg/kg
  behavior and body growth of the animals: has not caused any irregularities
[6]
  chronic toxicity (symptoms, behavior, deaths, body growth, hematology, hepatic and renal functions, organs): totally innocuous
[7]
  chronic toxicity (symptoms, behavior, deaths, body growth, hematology, hepatic and renal functions, organs): totally innocuous
[8]
  toxicity in the fetus (deformation, number and weight of living offspring): has not induced any deformation in the fetus and has not affected the number and the weight of the living offspring
[9]
  arterial pressure: low and temporary reduction
  cardiac frequency, respiratory dynamics and electrocardiogram: without any effect
  tolerance: very high tolerance
[10]
  mortality index: substantially reduced
  protective action on bronchial conditions (macro and micro examination of the lungs): effective protective action in proportion to the dose
[11]
  protection of the bronchi and lungs (bronchopulmonary lesions and mortality): significant action in the protection of the bronchi and lungs
[12]; oral, rectal or inhalation, 50 and 200 mg/kg, every hour for four hours
  laryngo-bronchial secretion: increase in a significant manner and proportionally to the dosage
[12]; [19]
  laryngo-tracheal secretion: equal to the activity of α-mercaptopropionylglycine
  tracheo-bronchial secretion: more substantial activity
[13]
  bronchosecretolithic activity: 34.4%
[14]
  period of time between administration of the histamine aerosol and appearance of bronchospastic symptoms: increased very substantially
[15]
  regeneration of the hepatic tissue: favoring the regeneration of the hepatic tissue in statistically significant manner
[16]
  stability to light: undergoes no change
[17]; saturated solution of sodium bicarbonate and other basic solutions
  solubility: soluble
[17]; warm ethanol
  solubility: soluble
[17]; water
  solubility: insoluble
[18]
  clinical tolerance with respect to gastric reactions: optimum clinical tolerance
